Earlier results on 1 substance are cited in US5456909A, “Glycoform fractions of recombinant soluble complement receptor 1 (sCR1) having extended half-lives in vivo” (T Cell Sciences, Inc., priority 1992, dated 1995).

This series concerns iC3. The conditions noted are these: produced in presence of tunicamycin; cited from earlier work.

For “non-glycosylated form of CR1: non-glycosylated form of CR1 produced in the presence of tunicamycin”, the “binding to iC3” value is “reduced binding to iC3”.
